pIC50: −log10 of the molar value.
Tests used:
[1] = test system: phosphorylated/total Akt and Raf-1; experiment: Western blotting of Hsp90 client proteins in multiple cancer cell lines; format: cell-based, human; settings: BT474/MCF-7/SK-Br3, 1975, HT1080, 4-4/HUH7, PC3, 2008, U87MG, HT29
Source text: FIGS. 10A and 10B show the effect of CP9 on the expression of Raf-1, phosphorylated Akt, and total Akt in 1975 lung cancer, BT474 breast cancer and HuH-7 liver cancer as determined by western blotting. α-Tubulin was used as the loading control.
CP9 had no effect on the expression of the Hsp90 client proteins in normal mouse embryonic fibroblasts (MEF) cells (FIG. 10C).

normal MEF cells = experiment: 3H-FDG cell uptake (glucose metabolism); format: cell-based, mouse; settings: 24 h post treatment
Experimental: FIG. 6B is a graph illustrating the effect of CP9 on glucose metabolism determined in 1975 lung cancer, 2008 ovarian cancer and HT29 colon cancer cells by ^3H-FDG cell uptake studies 24 h post treatment. Normal MEFs were used as a control. Results were expressed as mean counts/μg protein/initial dose±S.E.M. *, p<0.05 vs. carrier control treated cells.
To determine the specificity of CP9 in inhibition of glucose metabolism, normal MEF cells were used as a control.
To determine the downstream effects of lead compounds on glucose metabolism, 1.5×10^5 293T, 1975 and 2008 and MEFs cells plated in 24-well plate for 24 h, prior to treatment with different concentrations of CP9 for 24 or 48 h and subsequent incubation with 1 μCi of ^3H-FDG in 500 μl of medium for 1 h at 37° C. Cells treated with 2.5 μM of PU-H71 served as a positive control. The total counts in each sample were normalized to that of the dose added to each well and to the amount of protein, and expressed as mean counts/dose/μg protein±S.E.M. Likewise, the effect of CP9 on cell proliferation was determined using 1 μCi of ^3H-FLT per well after 2 h of incubation at 37° C.

[2] = test system: Hsp90 client proteins (phosphorylated/total Akt, Raf-1); experiment: Ex vivo western blotting of excised tumors; format: in vivo, mice; settings: western blotting after last imaging time point; p>0.05
Experimental: To determine if the inhibition of Hsp90(α/β)/p23 interactions also leads to degradation of Hsp90 client proteins in mice, tumors were excised from sacrificed mice after the last PET/CT imaging time point. The expression of phosphorylated/total Akt and Raf-1 in tumor lysates was determined by western blotting. α-tubulin was used as a loading control.
Mice were euthanized after the last imaging time points and tumors were excised and homogenized in tissue extraction buffer in the presence of HALT® protease and phosphatase inhibitors (all from Pierce, Ill.). Protein concentrations were determined by Biorad Protein Dc assay. The expression of phosphorylated/total Akt, Raf-1 and […] were determined by western blotting as described in Chan et al., (2008) Cancer Res. 68: 216-226. Western blot images were quantitated using NIH Image J, and expressed as the ratio of target protein/α-tubulin for each treatment group.

Hsp90α/p23 interactions = molecular target: T1, Hsp90α/p23 interactions (Homo sapiens, UniProt P07900); experiment: CP9 analogue evaluation, RL/FL imaging in 293Tα-FG cells; format: cell-based; settings: time- and dose-response curves in 293T-FG cells; read-out: IC50 for inhibition of Hsp90α/p23 signals
T1 construct: expressed in transfected cells; also with FL-eGFP reporter (293Tα-FG) and as xenografts in nude mice
Experimental: To improve the efficacy of CP9 in disruption of Hsp90(α/β)/p23 interactions in living mice, a structure-activity relationship (SAR) study was performed using 62 structural analogues (10 μM) with different modifications on CP9, as shown in FIGS. 2A-2G, using the 293T(α/β)-FG stable cells. Their effects on Hsp90(α/β)/p23 interactions and cell proliferation were monitored by sequential RL (FIG. 11A) and FL imaging at 24 h. CP9, PU-H71 and 17-AAG were used as positive controls. The net effect on Hsp90(α/β)/p23 interactions was determined by normalizing RL to that of FL signals and to that of carrier control-treated cells (FIG. 11B).
The IC50 for growth inhibition by A17 was about 2-fold lower than that of CP9 (FIG. 12A).
CP9 (0.3-10 μM), 17-AAG (10 μM) and PU-H71 (5 μM) were used as positive controls in triplicate wells. The efficacy of the analogues in disruption of Hsp90(α/β)/p23 and cell proliferation were monitored by RL imaging (2 h post upon addition of ENDUREN® at 30 μM final concentration) followed by FL imaging (10 mins post addition of D-Luc at 0.225 mg/ml final concentration) using a cooled CCD camera (1 min and 10 sec for RL and FL imaging, respectively). […] The effect of the CP9 analogues on degradation of Hsp90 client proteins in 293T cells were also monitored by western blotting as described above.

[3] = logP value (partition coefficient); format: physicochemical

pIC50 (Hsp90α/p23 interactions): 6.35 | logP [3]: 4.1
SMILES: Cc1cc(NC(=O)CSc2nc(-c3cccs3)cc(C(F)(F)F)n2)no1 [CP9, N-(5-methylisoxazol-3-yl)-2-(4-(thiophen-2-yl)-6-(trifluoromethyl)pyrimidin-2-ylthio)acetamide]
degradation of phosphorylated/total Akt and Raf-1 [1]: various levels of degradation | 3H-FDG uptake in MEFs (normal MEF cells): without significantly affecting | Hsp90 client proteins in excised tumors relative to carrier control [2]: did not lead to significant degradation

— patent US20130310347A1, “MULTI-MODALITY MOLECULAR IMAGING HIGH-THROUGHPUT ASSAY FOR IDENTIFYING HEAT SHOCK PROTEIN 90 (HSP90) INHIBITORS” (The Board of Trustees of the Leland Stanford Junior …, priority 2012, published 2013)
